Measured values taken from patent US5387600A, “Treating arteriosclerosis using benzimidazole compositions” (priority 1992, dated 1995).
Like-named read-outs stand apart in the source and are kept apart here.

Columns and labels:
[1] = test system: mouse abdominal cavity macrophage; experiment: In vitro test for suppressing effect of macrophage-foaming reaction; type: cell-based; conditions: compared with control; for activity at 5 µM: Mus musculus, Macrophage, 16 h
Experimental: (1) In vitro test for suppressing effect of macrophage-foaming reaction using mouse abdominal cavity macrophage
A 15-week old ICR female mouse (Japan SLC) was amputated at its neck and exsanguinated. Then, Hanks buffer (Nissui Pharmaceutical Co., Ltd.) was injected intraperitoneally. After massaging the abdominal part, the buffer was recovered rapidly and centrifuged at 1,000 rpm for 5 minutes to collect the abdominal cavity macrophage. Then, the collected abdominal cavity macrophage was suspended in GIT medium (Wako Pure Chemical Industry) and inoculated on a 24-well microplate. After culturing the macrophage for 2 hours at 37° C. in 5% CO2, the medium was changed into Dulbecco modified Eagle's MEM medium (Nissui Pharmaceutical Co., Ltd.). After further culturing the macrophage for 16 hours at 37° C. in 5% CO2, the following substances were added in order:
1 Test compounds: solutions in DMSO (Wako Pure Chemical Industry) 1 ml of the solutions were prepared, optionally diluted and the diluted solutions were added to individual wells (500 μl) in the amount of 5μl.
PC: phosphatidylcholine (Funakoshi)
PS: phosphatidylserine (Funakoshi)
DCP: dicetylphosphate (Funakoshi)
CHOL.: cholesterol (Sigma)
3 ^3 H-Oleic acid (Amersham Japan)
Then, after still further culturing the macrophage for 16 hours at 37° C. in 5% CO2, the lipid fraction was extracted with chloroform and methanol. The extracted lipid fraction was subjected to TLC (hexane:ether:acetic acid=70:30:1), the separated bands of CE (cholesterylester) and TG (triglyceride) were borne off from the TLC plate and then the radioactivities thereof were measured using a liquid scintillation counter (PACKARD BH-22). Yields of cholesteryl ester were calculated by comparing with a control.

[2] = test system: rabbit fed high-cholesterol feed; experiment: Blood lipid lowering effect in rabbit fed high-cholesterol feed; type: in vivo; conditions: New Zealand White female rabbits, 100 mg/kg/day in feed for 7 successive days
Excerpt: (2) Blood lipid lowering effect in rabbit fed high-cholesterol feed (i) New Zealand White female rabbits having body weight of about 2 kg were fed feed having high cholesterol content (100 g/day/rabbit: ORC-4 manufactured by Oriental Yeast, containing 0.5% of cholesterol and 0.5% of olive oil) for 7 days to produce hypercholesterolemia.
(§1) Subsequently, one group consisting of 3 rabbits (treatment group) was fed the same feed in the same amount, except that the feed further contained test compound (8) in the amount of 100 mg/kg/day/rabbit, for 7 successive days. On the other hand, as a control, another group consisting of 3 rabbits was fed the same feed in the same amount without any test compound.
(§2) A small amount of blood was drawn from the parotic vein of every rabbit once a week and was measured for amount of blood total cholesterol using IATROLIPO TC manufactured by Iatron Laboratories Inc.
Thus, it is clear that test compound (8) has an excellent lowering effect of the blood cholesterol. (ii) New Zealand White female rabbits having body weight of about 2 kg were fed feed having high cholesterol content (100 g/day/rabbit: ORC-4 manufactured by Oriental Yeast, containing 0.5% of cholesterol and 0.5% of olive oil) for 7 days to produce hypercholesterolemia. […]

rabbit fed normal feed = experiment: Blood lipid lowering effect in rabbit fed normal feed; type: in vivo; conditions: New Zealand White female rabbits, 100 mg/kg/day in feed for 7 successive days
Experimental: (3) Blood lipid lowering effect in rabbit fed normal feed (i) New Zealand White female rabbits having body weight of about 2 kg were fed normal feed (100 g/day/rabbit: ORC-4 manufactured by Oriental Yeast) for 7 days.
as §1, with “fed the normal feed in” for “fed the same feed in”, “successive days. As a control,” for “successive days. On the other hand, as a control,”
A Small amount of blood was drawn from the parotic vein of every rabbit once a week and was measured for amount of blood total cholesterol using IATROLIPO TC manufactured by Iatron Laboratories Inc.
Thus, it is clear that test compound (8) has an excellent blood cholesterol lowering effect not only on rabbits fed high-cholesterol feed but also on rabbits fed normal feed. (ii) New Zealand White female rabbits having body weight of about 2 kg were fed normal feed (100 g/day/rabbit: ORC-4 manufactured by Oriental Yeast) for 7 days. […]
as §2

Acute toxicity test = conditions: mouse, in vivo; oral, suspension in 0.5% Tween 80, 8-week old ddy mice
Excerpt: Compounds (8) and (53) each was suspended in 0.5% Tween 80 solution. Six 8-week old ddy mice were orally administered the suspensions respectively and were observed on acute toxicity.

[3] = test system: rabbit fed feed having high cholesterol content; experiment: Arteriosclerosis focus formation-regressing effect in rabbit fed feed having high cholesterol content; type: in vivo; conditions: 100 mg/kg/day in feed for 20 successive days
Excerpt: (4) Arteriosclerosis focus formation-regressing effect in rabbit fed feed having high cholesterol content
New Zealand White female rabbits having body weight of about 2 kg were fed feed having high cholesterol content (100 g/day/rabbit: ORC-4 manufactured by Oriental Yeast, containing 0.5% of cholesterol and 0.5% of olive oil) for 7 days to produce hypercholesterolemia.
as §1, with “(53)” for “(8)”, “20” for “7”
After 20 weeks from the administration of the test compound, the aortas and arch part thereof were removed from each rabbit and the blood vessels were opened. Comparing the treatment group with the control group, it was observed that the arteriosclerosis focus formation was suppressed effectively in the treatment group.

[4] = cholesteryl ester from 3H-oleic acid, read-out: Yield of CE (%)
[5] = triglyceride from 3H-oleic acid, read-out: Yield of TG (%)

| Compound | activity at 5 µM [1, 4] [%] | activity at 5 µM [1, 5] [%] | further results |
| --- | --- | --- | --- |
| Cc1nc2ccc([N+](=O)[O-])cc2[nH]1 [(5), 2-metyl-5-nitrobenzimidazole] | 67 | 89 |  |
| O=[N+]([O-])c1ccc2nc(CCCCCCCCc3nc4ccc([N+](=O)[O-])cc4[nH]3)[nH]c2c1 [(6), 1,8-bis(5-nitrobenzimidazol-2-yl) octane] | 8 | 61 |  |
| c1ccc(CSc2nc3ccccc3[nH]2)cc1 [(7), 2-benzylthiobenzimidazole] | 61 | 91 |  |
| CCCCCCCCCCCC(=O)Nc1ccc2nc(S)[nH]c2c1 [(8), 5-dodecanoylamino-2-mercaptobenzimidazole] | 42 | 106 | fall of amount of blood total cholesterol in comparison with the control group [2]: 25%; fall of amount of blood total cholesterol in comparison with the control group (rabbit fed normal feed): 20%; LD50 (Acute toxicity test): ≥ 1000 mg/kg |
| CCCCCCCCCC(=O)Nc1ccc2[nH]c(S)nc2c1 [(10)] | 69 | 129 |  |
| CCCCCCCCCCCCNS(=O)(=O)c1ccc2[nH]c(S)nc2c1 [(12)] | 52 | 102 |  |
| CCCCCCCCCCCCCCCCSc1nc2ccccc2[nH]1 [(20)] | 49 | 62 |  |
| CCCCCCCCS(=O)(=O)Nc1ccc2[nH]c(S)nc2c1 [(21)] | 64 | 93 |  |
| CC(CC(=O)Nc1ccc2[nH]c(S)nc2c1)CC(C)(C)C (stereo not drawn) [(23)] | 56 | 119 |  |
| CCCCCCCCOc1ccc2[nH]c(S)nc2c1 [(27)] | 51 | 78 |  |
| CCCCCCCCCCCC(=O)Nc1ccc2[nH]c(SC)nc2c1 [(28)] | 53 | 164 |  |
| CCCCCCCCCCCCNC(=O)c1ccc2[nH]c(S)nc2c1 [(30)] | 51 | 91 |  |
| CCCCCCCCCCCCOC(=O)c1ccc2[nH]c(S)nc2c1 [(34)] | 50 | 108 |  |
| CN1C(=O)C(Cl)C(Sc2nc3ccccc3[nH]2)N(C)C1=O (stereo not drawn) [(42)] |  |  | Yield of CE (%) ([1]; 5 μM, cholesteryl ester from 3H-oleic acid, 960 min): 61%; Yield of TG (%) ([1]; 5 μM, triglyceride from 3H-oleic acid, 960 min): 96% |
| O=C(CSc1nc2ccccc2[nH]1)c1ccccc1O [(43)] | 45 | 98 |  |
| CCCCCCCCCCCC(=O)Nc1ccc2[nH]cnc2c1 [(47)] | 55 | 98 |  |
| Cc1cc(Cc2cc(C)cc(C(C)(C)C)c2O)c(O)c(C(C)(C)C)c1 [(52)] | 38 | 101 |  |
| Cc1cc(C)c(O)c(C(c2cc(C)cc(C)c2O)C(C)C)c1 [(53), 2,2'-isobutylidenebis(4,6-dimethyphenol)] | 56 | 92 | fall of amount of blood total cholesterol in comparison with the control group [2]: 40%; fall of amount of blood total cholesterol in comparison with the control group (rabbit fed normal feed): 20%; cholesterol deposition to the eye ball ([3]; after 20 weeks): suppressing; fatty liver formation ([3]; after 20 weeks): suppressing; arteriosclerosis focus formation ([3]; aortas examined after 20 weeks): suppresses; LD50 (Acute toxicity test): ≥ 1000 mg/kg |
| Cc1cc(C)c(O)c(C(CC(C)CC(C)(C)C)c2cc(C)cc(C)c2O)c1 (stereo not drawn) [(54)] | 25 | 95 |  |
| CCCC(c1cc(C(C)(C)C)cc(C(C)(C)C)c1O)c1cc(C(C)(C)C)cc(C(C)(C)C)c1O [(56)] | 51 | 102 |  |
| CC(=O)Oc1c(Cc2cc(C)cc(C(C)(C)C)c2O)cc(C)cc1C(C)(C)C [(58)] | 45 | 98 |  |
| Cc1cc(C(c2ccccc2)c2cc(C)cc(C(C)(C)C)c2O)c(O)c(C(C)(C)C)c1 [(60)] | 48 | 96 |  |
| CCCCCCCC(c1cc(C)cc(C2(C)CCCCC2)c1O)c1cc(C)cc(C2(C)CCCCC2)c1O [(61)] | 52 | 103 |  |
| Cc1cc(C)c(O)c(C(C)(C)c2cc(C)cc(C)c2O)c1 [(62)] | 61 | 98 |  |
| CCC(C)(C)c1cc(C(C)c2cc(C(C)(C)CC)cc(C(C)(C)CC)c2O)c(O)c(C(C)(C)CC)c1 [(63), 2,2'-ethylidenebis(4,6-di-tert-pentylphenol)] | 42 | 96 |  |
| CCC(C)c1cc(C(C)CC)c(O)c(C(c2cc(C(C)CC)cc(C(C)CC)c2O)C(C)C)c1 (stereo not drawn) [(65)] | 38 | 101 |  |
| Cc1cc(C)c(O)c(Cc2cc(C(C)(C)C)cc(C(C)(C)C)c2O)c1 [(66)] | 54 | 108 |  |
| COC(=O)CCCC(C)(C)c1cc(C)cc(Cc2cc(C)cc(C(C)(C)CCCC(=O)OC)c2O)c1O [(67)] | 42 | 92 |  |
| CCOC(=O)Oc1c(C)cc(C)cc1C(c1cc(C)cc(C)c1O)C(C)C (stereo not drawn) [(73)] | 48 | 90 |  |
| Cc1cc(C(CCc2ccccc2)c2cc(C)cc(C(C)(C)C)c2O)c(O)c(C(C)(C)C)c1 [(74)] | 65 | 108 |  |
